Experimental data from paper PMC10762035, “Molecular basis of human trace amine-associated receptor 1 activation” (Nature Communications, 2024).
Residue numbers refer to the chain shown, from its start. Several values for one entry are separate records, joined by “and”; a condition that tells them apart may be missing. Equal values may be shown once. Read-outs that look alike come from different tables or passages of the source.

Assays:
Format in all cases: cell-based
[1] = target: T1, β2AR-Nterm-hTA1-F112^3.41W (CryoEM Construct) (Homo sapiens, UniProt Q96RJ0, F112W); assay: GloSensor cAMP accumulation assay, cryoEM construct; conditions: CryoEM Construct, n=2;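 also: cells transiently co-transfected with the receptor construct and GloSensor cAMP biosensor, luminescence read after 30 min compound exposure at room temperature in the dark as cAMP accumulation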
T1 construct: FLAG (N); 10xHis (N); TEV protease site (N); expressed in transfected cells; host or cells: HEK293T

hTA1 W264F = target: T2, hTA1 W264F (Homo sapiens, UniProt Q96RJ0, W264F); assay: GloSensor cAMP accumulation assay, W264F mutant; conditions: W264F;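 also: cells transiently transfected with receptor plus GloSensor, luminescence read 30 min after agonist addition at room temperature, concentration-response curves fitted by log(agonist) vs response regression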
T2 construct: expressed in transfected cells; host or cells: HEK293T
T2 sequence (Q96RJ0 1-339 W264F): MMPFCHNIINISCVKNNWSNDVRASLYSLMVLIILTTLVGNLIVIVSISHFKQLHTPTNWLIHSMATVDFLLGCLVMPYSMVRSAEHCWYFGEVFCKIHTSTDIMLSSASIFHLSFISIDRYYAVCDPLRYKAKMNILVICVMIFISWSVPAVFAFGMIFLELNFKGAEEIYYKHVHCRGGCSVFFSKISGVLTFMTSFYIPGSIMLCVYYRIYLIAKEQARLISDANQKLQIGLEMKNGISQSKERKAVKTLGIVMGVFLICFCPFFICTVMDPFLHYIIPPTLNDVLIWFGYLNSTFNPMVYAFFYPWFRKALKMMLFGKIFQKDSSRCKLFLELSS

hTA1 I290Y = target: T3, hTA1 I290Y (Homo sapiens, UniProt Q96RJ0, I290Y); assay: GloSensor cAMP accumulation assay, I290Y mutant; conditions: for Normalized Luminescence Counts for Concentration Response Curves: I120Y, log[Agonist], single replicates
T3 construct: expressed in transfected cells; host or cells: HEK293T
T3 sequence (Q96RJ0 1-339 I290Y): T2 sequence (Q96RJ0 1-339 W264F) with F264W, I290Y

hTA1 F195T = target: T4, hTA1 F195T (Homo sapiens, UniProt Q96RJ0, F195T); assay: GloSensor cAMP accumulation assay, F195T mutant; conditions: F195T;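 also: cells transiently co-expressing HA-FLAG-tagged hTA1 and the GloSensor cAMP biosensor, luminescence read 30 min after agonist addition at room temperature, concentration-response fitted by nonlinear regression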
T4 construct: expressed in transfected cells; host or cells: HEK293T
T4 sequence (Q96RJ0 1-339 F195T): T2 sequence (Q96RJ0 1-339 W264F) with F195T, F264W

hTA1 T271N = target: T5, hTA1 T271N (Homo sapiens, UniProt Q96RJ0, T271N); assay: GloSensor cAMP accumulation assay, T271N mutant
T5 construct: expressed in transfected cells; host or cells: HEK293T
T5 sequence (Q96RJ0 1-339 T271N): T2 sequence (Q96RJ0 1-339 W264F) with F264W, T271N

[2] = Asenapine, per experiment, 3 replicates
[3] = Asenapine, per experiment, 3 replicates, read-out: pEC50 values Mean (converted)
[4] = n=2, read-out: Span ± SEM (Emax normalized to β-PEA)

T1 sequence (Q96RJ0 with tags, fused parts or gaps F112W): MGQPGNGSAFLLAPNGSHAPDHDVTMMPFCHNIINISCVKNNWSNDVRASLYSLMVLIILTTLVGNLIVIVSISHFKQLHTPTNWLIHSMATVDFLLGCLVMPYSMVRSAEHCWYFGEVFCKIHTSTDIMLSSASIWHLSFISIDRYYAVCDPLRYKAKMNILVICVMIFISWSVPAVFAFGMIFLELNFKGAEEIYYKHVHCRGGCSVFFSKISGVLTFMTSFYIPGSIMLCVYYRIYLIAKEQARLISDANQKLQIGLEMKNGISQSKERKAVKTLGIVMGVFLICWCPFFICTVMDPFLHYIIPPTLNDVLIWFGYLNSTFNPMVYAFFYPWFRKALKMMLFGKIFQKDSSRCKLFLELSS

EC50 ([1]; read-out: EC50): 51.8 nM
Emax ([1]; read-out: Span ± SEM (Emax normalized to β-PEA)): 95.2 ± 1.98%
EC50 ([1]; read-out: pEC50 ± SEM (converted)): 52.5 nM
ΔpEC50 values (each mutant value - WT average), Mean (hTA1 W264F; Asenapine): -2.045 and -2.029
Emax values, Mean (hTA1 W264F; [2]): 34.2126 and 58.204
EC50 (hTA1 W264F; [3]): 9610 nM and 9250 nM
EC50 (hTA1 W264F; n=2, read-out: EC50): 9430 nM
Emax (hTA1 W264F; [4]): 46.2 ± 12%
Normalized Luminescence Counts for Concentration Response Curves (hTA1 I290Y; M -12.522): -3.7267
Emax values of Asenapine (hTA1 I290Y; I290Y, Mean of one experiment): 56.131 and 42.2396
Emax (hTA1 I290Y; I290Y, Mean of one experiment, read-out: Emax values of Asenapine): 54.9%
EC50 (hTA1 I290Y; I290Y, Mean of one experiment, read-out: pEC50 values of Asenapine (converted)): 252 nM and 215 nM and 383 nM
EC50 (hTA1 I290Y; I290Y, read-out: EC50): 275 nM
Emax (hTA1 I290Y; I290Y, read-out: Span ± SEM (Emax normalized to β-PEA)): 51.1 ± 4.43%
Emax (hTA1 I290Y; I290Y, relative to β-PEA, read-out: Emax): 51.1%
ΔEmax values (each mutant value - WT average), I290Y, Mean (hTA1 I290Y; hTA1 I290Y mutant vs WT average, Figure 6B, each line is one experiment (3 replicates)): -33.855 and -32.5762 and -46.4677
increase in potency vs wild type (hTA1 F195T): 3 fold
ΔpEC50 values (each mutant value - WT average), Mean (hTA1 F195T; Asenapine): -0.004135 and 0.1049
Emax values, Mean (hTA1 F195T; [2]): 90.8432 and 72.9114
EC50 (hTA1 F195T; [3]): 87.4 nM and 68 nM
EC50 (hTA1 F195T; n=2, read-out: EC50): 77.1 nM
Emax (hTA1 F195T; [4]): 81.9 ± 8.97%
Emax values of Asenapine (hTA1 T271N; T271N, Mean of one experiment): 142.994 and 100.859
EC50 (hTA1 T271N; T271N, Mean of one experiment, read-out: pEC50 values of Asenapine (converted)): 496 nM and 463 nM
EC50 (hTA1 T271N; T271N, n=2, read-out: EC50): 479 nM
Emax (hTA1 T271N; T271N, n=2, read-out: Span ± SEM (Emax normalized to β-PEA)): 122%
Emax (hTA1 T271N; T271N, relative to β-PEA, read-out: Emax): 122%
ΔEmax values (each mutant value - WT average), T271N, Mean (hTA1 T271N; hTA1 T271N mutant vs WT average, Figure 6B, each line is one experiment (3 replicates)): 54.2867 and 12.1519
Compound: CN1CC2c3ccccc3Oc3ccc(Cl)cc3C2C1 (stereo not drawn) [asenapine]
Normalized Luminescence Counts for Concentration Response Curves (hTA1 I290Y; M -7): 15.0486 and 28.2836 and 14.433 and 14.2815 and 11.35 and 10.6171 and 4.9397 and 9.4516 and 7.196
Normalized Luminescence Counts for Concentration Response Curves (hTA1 I290Y; M -7.522): 3.6603 and 8.277 and 2.121 and 8.052 and 3.288 and 0.7233 and -1.828 and 2.684 and 1.556
Normalized Luminescence Counts for Concentration Response Curves (hTA1 I290Y; M -8): 2.121 and 5.507 and 1.506 and 4.021 and -2.208 and 3.288 and -1.828 and -2.956 and -5.212
Normalized Luminescence Counts for Concentration Response Curves (hTA1 I290Y; M -8.522): -2.188 and 0.2746 and -1.264 and -1.842 (2×) and -4.04 and -6.34 and -5.212 (2×)
Normalized Luminescence Counts for Concentration Response Curves (hTA1 I290Y; M -9): -1.572 and -0.6488 and -1.264 and -5.506 and -1.109 and -5.873 and -4.0841 and -5.212 (2×)
Normalized Luminescence Counts for Concentration Response Curves (hTA1 I290Y; M -9.522): -3.419 and -1.264 and -3.7267 and -3.674 and -1.109 and -6.239 and -5.212 (2×) and -4.0841
Normalized Luminescence Counts for Concentration Response Curves (hTA1 I290Y; M -10): -2.496 and -2.188 and -2.803 and -2.575 and 2.189 and 2.922 and -4.0841 and -1.828 and -2.956
Normalized Luminescence Counts for Concentration Response Curves (hTA1 I290Y; M -10.522): -1.88 (2×) and -1.264 and -6.605 (2×) and -3.307 and -1.828 (2×) and -0.7002
Normalized Luminescence Counts for Concentration Response Curves (hTA1 I290Y; M -11): -2.188 and -1.88 and -2.496 and -2.575 and -5.506 and -7.705 and -6.34 and -4.0841 and -5.212
Normalized Luminescence Counts for Concentration Response Curves (hTA1 I290Y; M -11.522): -2.188 and -1.264 (2×) and -1.475 and -4.773 and -4.407 and -4.0841 (2×) and -2.956
Normalized Luminescence Counts for Concentration Response Curves (hTA1 I290Y; M -12): -3.111 and -2.496 and -2.188 and -5.873 and -5.14 and -2.941 and -1.828 and -2.956 and -4.0841
